Test results as given in patent US20030203819A1, “Synergistically acting herbicidal mixtures” (priority 1998, published 2003).
Read-outs that look alike come from different tables or passages of the source.

What was measured:
Format in all cases: in vivo
Triticum aestivum = test: Phytotoxicity to crop plant in the greenhouse (post-emergence treatment)
Text: (§1) The mixtures according to the invention were applied pre- or post-emergence (foliar treatment). The herbicidal compounds of component B were applied in the formulation in which they are present as commercially available product.
(§2) Some of the experiments were greenhouse experiments and some were field trials on mini plots (on a site with sandy loam (pH 6.2 to 7.0) or sandy clay (pH 5.0 to 6.7) as the soil).
(§3) The herbicidally active compounds of components A) and B) were applied in succession or jointly, in the latter case in some cases as a tank mix and in some cases as a readymix, in the form of emulsions, aqueous solutions or suspensions, the vehicle being water ([…]). In the case of the field trials, application was effected with the aid of a mobile plot sprayer.
(§4) The test period extended over 3 to 8 weeks, and the stands were also observed at later points in time.
(§5) Damage by the herbicidal compositions was evaluated with reference to a scale of 0% to 100% in comparison with untreated control plots. 0 means no damage and 100 means complete destruction of the plants.
(§6) In these examples, the value E at which only an additive effect of the individual active ingredients is to be expected was calculated by the method of S. R. Colby (Calculating synergistic and antagonistic responses of herbicide combinations, Weeds 15, 20 pp (1967).

Amaranthus retroflexus [1] = test: Herbicidal action in the greenhouse (post-emergence treatment); settings: Amaranthus retroflexus, post-emergence
Text: as §1, §2
(§7) The harmful plants differed with regard to size and developmental state; on average, they were 5 to 20 cm long, depending on the growth habit.
as §3, §4, §5, §6

Veronica ssp. = test: as above
Text: as §1, §2, §7, §3, §4, §5, §6

Ipomoea acuminata = test: Herbicidal action in the field (post-emergence treatment)
Text: as §1, §2, §7, §3, §4, §5, §6

Phalaris spec. = test: as above; settings: Ia.3 75 g/ha a.s.
Text: as §1, §2, §7, §3, §4, §5, §6

Digitaria adscendens = test: as above
Text: as §1, §2, §7, §3, §4, §5, §6

Anthemis mixta = test: as above; settings: Ia.3 75 g/ha a.s.
Text: as §1, §2, §7, §3, §4, §5, §6

Geranium carolinianum = test: as above; settings: Ia.3 150 g/ha a.s.
Text: as §1, §2, §7, §3, §4, §5, §6

Bidens pilosa = test: as above
Text: as §1, §2, §7, §3, §4, §5, §6

Echinochloa crus-galli [2] = test: as above; settings: Ia.3 75 g/ha a.s.
Text: as §1, §2, §7, §3, §4, §5, §6

Digitaria sanguinalis [3] = test: as above; settings: Ia.3 50 g/ha a.s.
Text: as §1, §2, §7, §3, §4, §5, §6

[4] = tested on: Ipomoea purpurea var. diversifolia; test: as above
Text: as §1, §2, §7, §3, §4, §5, §6

Setaria viridis [5] = test: as above; settings: Ia.3 100 g/ha a.s.
Text: as §1, §2, §7, §3, §4, §5, §6

Abutilon theophrasti [6] = test: as above
Text: as §1, §2, §7, §3, §4, §5, §6

Stellaria media = test: as above
Text: as §1, §2, §7, §3, §4, §5, §6

Galium aparine = test: as above
Text: as §1, §2, §7, §3, §4, §5, §6

Lolium perenne = test: as above
Text: as §1, §2, §7, §3, §4, §5, §6

Brachiaria plantaginea = test: as above; settings: Ia.3 75 g/ha a.s.
Text: as §1, §2, §7, §3, §4, §5, §6

Richardia brasiliensis = test: as above; settings: Ia.3 75 g/ha a.s.
Text: as §1, §2, §7, §3, §4, §5, §6

Sorghum bicolor = test: as above; settings: Ia.3 (title: Ia.33) 75 g/ha a.s. (Table 68)
Text: as §1, §2, §7, §3, §4, §5, §6

Alopecurus myosuroides = test: as above
Text: as §1, §2, §7, §3, §4, §5, §6

Setaria faberi = test: as above
Text: as §1, §2, §7, §3, §4, §5, §6

Chenopodium album = test: as above; settings: Ia.3 50 g/ha a.s.
Text: as §1, §2, §7, §3, §4, §5, §6

Cyperus species = test: as above
Text: as §1, §2, §7, §3, §4, §5, §6

Amaranthus retroflexus [7] = test: Herbicidal action in the greenhouse (pre-emergence treatment); settings: Ia.3 31.2 g/ha a.s.
Text: as §1, §2, §7, §3, §4, §5, §6

Cyperus iria = test: as above; settings: Ia.3 31.2 g/ha a.s.
Text: as §1, §2, §7, §3, §4, §5, §6

Echinochloa crus-galli [8] = test: as above; settings: Ia.3 62.5 g/ha a.s.
Text: as §1, §2, §7, §3, §4, §5, §6

Digitaria sanguinalis [9] = test: as above
Text: as §1, §2, §7, §3, §4, §5, §6

Setaria viridis [10] = test: as above; settings: Ia.3 15.6 g/ha a.s.
Text: as §1, §2, §7, §3, §4, §5, §6

Setaria viridis [11] = test: Herbicidal action in the greenhouse (post-emergence treatment); settings: Ia.3 15.6 g/ha a.s.
Text: as §1, §2, §7, §3, §4, §5, §6

Abutilon theophrasti [12] = test: as above; settings: Ia.3 15.6 g/ha a.s.
Text: as §1, §2, §7, §3, §4, §5, §6

Ipomoea ssp. = test: as above
Text: as §1, §2, §7, §3, §4, §5, §6

## COCC(C)N(C(=O)CCl)c1c(C)csc1C (stereo not drawn) [Dimethenamide]
Triticum aestivum; Table 83, Dimethenamide 500 g/ha a.s.
  Phytotoxicity (%): 0%

## Cc1cc(-c2c(S(C)(=O)=O)ccc(C(=O)c3cnn(C)c3O)c2Cl)on1 [Ia.52, 4-[2-chloro-3-(3-methyl-isoxazol-5-yl)-4-methylsulfonylbenzoyl]-1-methyl-5-hydroxy-1H-pyrazole]
Triticum aestivum; Table 83, Ia.52 62.5 g/ha a.s.
  Phytotoxicity (%): 0%
Amaranthus retroflexus [1]; read-out: Damage, Ia.52 62.5 g/ha a.s.
  pest or weed control at 62.5 g/ha: 75%
Veronica ssp.; Ia.52 15.6 g/ha a.s.
  Damage: 40%

## Cn1ncc(C(=O)c2ccc(S(C)(=O)=O)c(C3=NOCC3)c2Cl)c1O [Ia.3, 4-[2-chloro-3-(4,5-dihydroisoxazol-3-yl)-4-methylsulfonylbenzoyl]-1-methyl-5-hydroxy-1H-pyrazole]
Ipomoea acuminata; Ia.3 75 g/ha a.s. (Table 15)
  Damage: 25%
Ipomoea acuminata; Ia.3 75 g/ha a.s. (Table 29)
  Damage: 25%
Ipomoea acuminata; Ia.3 75 g/ha a.s. (Table 35)
  Damage: 25%
Ipomoea acuminata; Ia.3 75 g/ha a.s. (Table 76)
  Damage: 23%
Phalaris spec.
  Damage: 20%
Digitaria adscendens; Ia.3 75 g/ha a.s. (Table 33)
  Damage: 90%
Digitaria adscendens; Ia.3 75 g/ha a.s. (Table 37)
  Damage: 90%
Anthemis mixta
  Damage: 68%
Geranium carolinianum
  Damage: 30%
Bidens pilosa; Ia.3 75 g/ha a.s. (Table 13)
  Damage: 30%
Bidens pilosa; Ia.3 75 g/ha a.s. (Table 58)
  Damage: 25%
Bidens pilosa; Ia.3 75 g/ha a.s. (Table 69)
  Damage: 25%
Echinochloa crus-galli [2]
  Damage: 98%
Digitaria sanguinalis [3]
  Damage: 57%
[4]; Ia.3 75 g/ha a.s. (Table 16)
  Damage: 93%
[4]; Ia.3 75 g/ha a.s. (Table 65)
  Damage: 94%
Setaria viridis [5]
  Damage: 75%
Abutilon theophrasti [6]; Ia.3 50 g/ha a.s. (Table 5)
  Damage: 85%
Abutilon theophrasti [6]; Ia.3 75 g/ha a.s. (Table 66)
  Damage: 85%
Stellaria media; Ia.3 75 g/ha a.s. (Table 14)
  Damage: 91%
Stellaria media; Ia.3 75 g/ha a.s. (Table 63)
  Damage: 91%
Galium aparine; Ia.3 75 g/ha a.s. (Table 9)
  Damage: 63%
Galium aparine; Ia.3 75 g/ha a.s. (Table 54)
  Damage: 60%
Galium aparine; Ia.3 75 g/ha a.s. (Table 64)
  Damage: 60%
Lolium perenne; Ia.3 75 g/ha a.s.
  Damage: 10%
Brachiaria plantaginea
  Damage: 96%
Brachiaria plantaginea; Table 80, Brachiaria plantaginea, field, post-emergence
  Damage (%): 95%
Richardia brasiliensis
  Damage: 70%
Sorghum bicolor
  Damage: 78%
Alopecurus myosuroides; Ia.3 7.5 g/ha a.s. (Table 7)
  Damage: 10%
Alopecurus myosuroides; Ia.3 75 g/ha a.s. (Table 8)
  Damage: 10%
Setaria faberi; Ia.3 75 g/ha a.s. (Table 59)
  Damage: 99%
Setaria faberi; Ia.3 75 g/ha a.s. (Table 67)
  Damage: 95%
Chenopodium album
  Damage: 92%
Cyperus species; Ia.3 75 g/ha a.s. (Table 70)
  Damage: 5%
Cyperus species; Ia.3 75 g/ha a.s. (Table 71)
  Damage: 0%
Amaranthus retroflexus [7]
  Damage: 40%
Cyperus iria
  Damage: 50%
Echinochloa crus-galli [8]
  Damage: 60%
Digitaria sanguinalis [9]; Ia.3 62.5 g/ha a.s. (Table 40)
  Damage: 60%
Digitaria sanguinalis [9]; Ia.3 62.5 g/ha a.s. (Table 47)
  Damage: 60%
Setaria viridis [10]
  Damage: 20%
Amaranthus retroflexus [1]; read-out: Damage, Ia.3 15.6 g/ha a.s. (Table 10)
  pest or weed control at 15.6 g/ha: 80%
Amaranthus retroflexus [1]; read-out: Damage, Ia.3 15.6 g/ha a.s. (Table 25)
  pest or weed control at 15.6 g/ha: 55%
Setaria viridis [11]
  Damage: 80%
Abutilon theophrasti [12]
  Damage: 70%
Veronica ssp.; Ia.3 31.2 g/ha a.s.
  Damage: 80%
Ipomoea ssp.; Ia.3 31.2 g/ha a.s. (Table 27)
  Damage: 75%
Ipomoea ssp.; Ia.3 31.2 g/ha a.s. (Table 74)
  Damage: 75%

## C[n+]1ccc(-c2cc[n+](C)cc2)cc1 [paraquat-dichloride, reference compound]
Lolium perenne; paraquat-dichloride 400 g/ha a.s.
  Damage: 97%
